Data taken from paper doi:10.1101/2024.12.03.626679, “Structure of the SMYD2-PARP1 Complex Reveals Both Productive and Allosteric Modes of Peptide Binding” (bioRxiv, 2024).
No end group written: not given here.

Legend:
PARP1(518–1014) = test: Methyltransferase activity of SMYD2 proteins on PARP1(518–1014), MTase-Glo assay; format: biochemical, human; conditions: versus wild-type SMYD2
Method: Steady-state enzyme kinetics was carried out using the MTase-Glo methyltransferase assay according to the manufacturer’s instructions (Promega). […] After incubating the reactions with the MTase-Glo reagent and MTase-Glo Detection Solution, the amount of produced AdoHcy was determined by measuring luminescent signals using a microplate reader. The reactions were quantified using an AdoHcy standard curve that correlates the luminescence intensity to the AdoHcy concentration. Enzyme kinetic constants (KM, kcat, and Hill coefficient) were determined using initial velocity measurements at varying substrate concentrations by fitting them to a standard Michaelis-Menten kinetics model and the Hill equation.

histone H4 = test: Antibody-based methyltransferase assay on H4; format: biochemical; conditions: versus wild-type SMYD2; 30°C overnight, Western blot
Method: (§1) An antibody-based methyltransferase assay was carried out similarly to a previously described method ([29]). Reactions were performed by incubating SMYD2 proteins with H3 or H4 in the presence of AdoMet at 30°C overnight in a reaction buffer containing 50 mM Tris pH 8.5, 25 mM NaCl, 5% glycerol, and 2 mM DTT. Lysine methylation was detected by Western blot analysis using antibodies against mono-, di-, and trimethylated lysine (ab23366 & ab76118, Abcam). Enzymatic activities were quantified based on chemiluminescence using a CCD gel imager.

histone H3 = test: Antibody-based methyltransferase assay on H3; format: biochemical; conditions: versus wild-type SMYD2; 30°C overnight, Western blot
Method: as §1

[1] = target: T1, SMYD2-F184A / PARP1(518–1014) interaction (Homo sapiens, UniProt Q9NRG4, F184A); test: ELISA inhibition of SMYD2-PARP1(518–1014) interaction by PARP1 peptide, F184A mutant; conditions: SMYD2 pre-incubated with peptide, four-parameter logistic fit, triplicate, read-out: IC50 of inhibition of F184A mutant binding to coated PARP1 protein
T1 construct: Full-length human SMYD2 (residues 1–433) (SMYD2-WT); 6xHis-SUMO (N, cleaved yes); made in house
T1 sequence (Q9NRG4 whole entry F184A, the tested form may be a part): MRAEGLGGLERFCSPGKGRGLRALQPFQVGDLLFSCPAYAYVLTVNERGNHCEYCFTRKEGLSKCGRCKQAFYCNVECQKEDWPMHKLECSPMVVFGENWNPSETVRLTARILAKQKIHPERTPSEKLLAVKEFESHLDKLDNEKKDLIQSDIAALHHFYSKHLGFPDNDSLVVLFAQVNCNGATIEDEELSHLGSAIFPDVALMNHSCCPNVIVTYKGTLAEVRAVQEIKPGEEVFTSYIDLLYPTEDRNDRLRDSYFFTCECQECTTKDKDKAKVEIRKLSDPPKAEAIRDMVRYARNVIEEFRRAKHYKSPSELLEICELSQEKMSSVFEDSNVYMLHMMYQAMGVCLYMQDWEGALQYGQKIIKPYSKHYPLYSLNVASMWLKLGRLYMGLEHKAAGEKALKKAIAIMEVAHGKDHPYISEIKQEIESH
Method: ELISA solid-phase protein binding experiments were performed according to the previously described protocol ([22]). ELISA plates were prepared by coating PARP1, H3, or H4 onto the wells in a coating buffer containing 10 mM HEPES pH 7.5, 0.1 M KCl, and 3 mM MgCl2. After blocking the plates with 1% BSA, binding experiments were performed by adding different concentrations of SMYD2 proteins into the wells. For PARP1 peptide inhibition experiments, SMYD2 proteins were pre-incubated with the PARP1 peptide before being added to the wells. Bound SMYD2 proteins were probed with the anti-SMYD2 antibody (ab108217, Abcam), and the amount of binding was quantified using an HRP-conjugated secondary antibody (ab6721, Abcam) that generated a color signal from oxidizing the substrate 2,2′-azino-bis(3-ethylbenzthiazoline sulfonic acid). The absorbance of signals was measured at 420 nm using a microplate reader at 2-minute intervals for 15 minutes. The rate of change in absorbance obtained by linear regression was used to quantify the binding. IC50 and the concentration required for 50% saturation were obtained by fitting binding data using a four-parameter logistic regression model. For reciprocal binding experiments, SMYD2 proteins were coated onto the wells and bound PARP1 was detected by the anti-PARP1 antibody (ab191217, Abcam). All binding experiments were performed in triplicate.

| methylation level of PARP1 protein (PARP1(518–1014)) | methylation of H4 (histone H4) | methylation of H3 (histone H3) | IC50 [1] | Substance |
| --- | --- | --- | --- | --- |
| abolishes the methyltransferase activity | abolishes the methyltransferase activity | abolishes the methyltransferase activity | – | F184A mutant: SMYD2 mutant targeting the target lysine access channel at the active site |
| notable increase | marked increase | marked increase | – | L351A/W356A mutant: SMYD2 secondary-binding-site mutant targeting both subsites M and L |
| – | – | – | ~0.153 µM | RMKLTLKGGAAVD [PARP1 peptide] |
